pIC50: −log10 of the molar value. The source made the active and inactive calls. The calls are words filed in the database; no cut-off is given here.

Data set [1] relates to Mus musculus. In words: Neuroprotective effect in Kunming mouse assessed as increase in scopolamine-induced reduction in time spent in platform crossing at 0.1 mg/kg, po qd administered for 15 days followed by 1 hr prior to trial session for 6 days measured at day 5 by Morris water maze test relative to sham control. It is filed as functional, organism-based. Also noted: dose 0.1 mg/kg.

Data set [2] relates to Mus musculus. Kind of data set: Neuroprotective effect in Kunming mouse assessed as reversal of scopolamine-induced reduction in ACh level in hippocampus at 0.1 mg/kg, po qd administered for 15 days followed by 1 hr prior to trial session for 6 days. In kind it is functional, organism-based. Also noted: dose 0.1 mg/kg.
For data set [3], the system named is Mus musculus. Kind of data set: Neuroprotective effect in Kunming mouse assessed as increase in scopolamine-induced reduction in SOD level in hippocampus at 0.1 mg/kg, po qd administered for 15 days followed by 1 hr prior to trial session for 6 days relative to control. In kind it is functional, organism-based. Also noted: dose 0.1 mg/kg.
Data set [4] relates to Mus musculus. Kind of data set: Neuroprotective effect in Kunming mouse assessed as increase in scopolamine-induced reduction in GPx level in hippocampus at 0.1 mg/kg, po qd administered for 15 days followed by 1 hr prior to trial session for 6 days relative to control. Also noted: dose 0.1 mg/kg. In kind it is functional, organism-based.
Data set [5] relates to Mus musculus. In words: Neuroprotective effect in Kunming mouse assessed as reversal of scopolamine-induced increase in AChE activity in hippocampus at 0.1 mg/kg, po qd administered for 15 days followed by 1 hr prior to trial session for 6 days. It is filed as functional, organism-based. Also noted: dose 0.1 mg/kg.
Data set [6] has as its system Mus musculus. In words: Neuroprotective effect in Kunming mouse assessed as increase in scopolamine-induced reduction in time spent in target quadrant at 0.1 mg/kg, po qd administered for 15 days followed by 1 hr prior to trial session for 6 days measured at day 5 by Morris water maze test relative to sham control. Further details: dose 0.1 mg/kg. In kind it is functional, organism-based.

In data set [7] the test system is Mus musculus. In words: Neuroprotective effect in Kunming mouse assessed as reduction in scopolamine-induced increase in MDA level in hippocampus at 0.1 mg/kg, po qd administered for 15 days followed by 1 hr prior to trial session for 6 days relative to control. In kind it is functional, organism-based. Further details: dose 0.1 mg/kg.
For data set [8], the system named is Mus musculus. Kind of data set: Neuroprotective effect in Kunming mouse assessed as reduction in scopolamine-induced escape latency at 0.1 mg/kg, po qd administered for 15 days followed by 1 hr prior to trial session for 6 days by Morris water maze test. It is filed as functional, organism-based. Further details: dose 0.1 mg/kg.
Data set [9] relates to Mus musculus. In words: Neuroprotective effect in Kunming mouse assessed as reduction in scopolamine-induced impairment in spatial learning and memory at 25 to 100 mg/kg, po qd administered for 15 days followed by 1 hr prior to trial session for 6 days measured at day 5 by Morris water maze test relative to sham control. In kind it is functional, organism-based.
In data set [10] the test system is Mus musculus. In words: Neuroprotective effect in po dosed Kunming mouse assessed as increase in scopolamine-induced reduction in time spent in platform crossing administered qd for 15 days followed by 1 hr prior to trial session for 6 days by Morris water maze test. In kind it is functional, organism-based.
In data set [11] the test system is PC-12. In words: Inhibition of intracellular ROS generation in rat PC12 cells at 5 ug/ml incubated for 24 hrs prior to H2O2 challenge measured after 2 hrs by fluorescence assay relative to control. It is filed as functional. The settings on record: values are per cent of control.
For data set [12], the system named is Mus musculus. Kind of data set: Neuroprotective effect in Kunming mouse assessed as reduction in scopolamine-induced increase in MDA level in hippocampus at 25 to 100 mg/kg, po qd administered for 15 days followed by 1 hr prior to trial session for 6 days relative to control. In kind it is functional, organism-based.
For data set [13], the system named is Mus musculus. Kind of data set: Neuroprotective effect in Kunming mouse assessed as reduction in scopolamine-induced escape latency at 100 mg/kg, po qd administered for 15 days followed by 1 hr prior to trial session for 6 days by Morris water maze test. In kind it is functional, organism-based. Further details: dose 100 mg/kg.
Data set [14] can be described thus: Cytoprotective effect against H2O2-induced cell death in rat PC12 cells at 20 ug/ml incubated for 24 hrs prior to H2O2 challenge measured after 2 hrs by MTT assay. It is filed as functional, PC-12.
For data set [15], the system named is PC-12. Kind of data set: Inhibition of H2O2-induced NO production in rat PC12 cells at 20 ug/ml incubated for 24 hrs prior to H2O2 challenge measured after 2 hrs relative to control. In kind it is functional.
Data set [16] can be described thus: Cytoprotective effect against H2O2-induced cell death in rat PC12 cells at 5 ug/ml incubated for 24 hrs prior to H2O2 challenge measured after 2 hrs by MTT assay. In kind it is functional, PC-12.
Data set [17] concerns the target T1, Acetylcholinesterase (Homo sapiens, UniProt P22303). Conditions: 40 ug/ml.
Description: Inhibition of AChE (unknown origin) at 40 ug/ml by Ellman's method
Data set [18] has as its system PC-12. Kind of data set: Inhibition of intracellular ROS generation in rat PC12 cells at 10 ug/ml incubated for 24 hrs prior to H2O2 challenge measured after 2 hrs by fluorescence assay relative to control. In kind it is functional. Conditions: values are per cent of control.
Data set [19] concerns Mus musculus. In words: Neuroprotective effect in po dosed Kunming mouse assessed as increase in scopolamine-induced reduction in time spent in target quadrant administered qd for 15 days followed by 1 hr prior to trial session for 6 days by Morris water maze test. In kind it is functional, organism-based.
The subject of data set [20] is Mus musculus. In words: Neuroprotective effect in po dosed Kunming mouse assessed as reduction in scopolamine-induced escape latency administered qd for 15 days followed by 1 hr prior to trial session for 6 days by Morris water maze test. It is filed as functional, organism-based.
The subject of data set [21] is PC-12. Kind of data set: Inhibition of H2O2-induced NO production in rat PC12 cells at 10 ug/ml incubated for 24 hrs prior to H2O2 challenge measured after 2 hrs relative to control. In kind it is functional.
Data set [22] relates to PC-12. In words: Inhibition of H2O2-induced LDH release in rat PC12 cells at 5 to 20 ug/ml incubated for 24 hrs prior to H2O2 challenge measured after 2 hrs relative to control. In kind it is functional, cell-based.
Data set [23] relates to Mus musculus. Kind of data set: Neuroprotective effect in Kunming mouse assessed as increase in scopolamine-induced reduction in SOD level in hippocampus at 25 to 100 mg/kg, po qd administered for 15 days followed by 1 hr prior to trial session for 6 days relative to control. It is filed as functional, organism-based.
In data set [24] the test system is Mus musculus. Kind of data set: Neuroprotective effect in Kunming mouse assessed as reversal of scopolamine-induced increase in AChE activity in hippocampus at 100 mg/kg, po qd administered for 15 days followed by 1 hr prior to trial session for 6 days relative to sham control. Further details: dose 100 mg/kg. It is filed as functional, organism-based.
For data set [25], the system named is PC-12. In words: Inhibition of H2O2-induced NO production in rat PC12 cells at 5 ug/ml incubated for 24 hrs prior to H2O2 challenge measured after 2 hrs relative to control. It is filed as functional.
A short description of data set [26]: Cytotoxicity against rat PC12 cells at 1 to 20 ug/ml by MTT assay. Conditions: pc-12. In kind it is cell-based. (Tetrazolium dyes change colour on reduction, which living cells bring about.)
Data set [27] in a line: Cytoprotective effect against H2O2-induced cell death in rat PC12 cells at 10 ug/ml incubated for 24 hrs prior to H2O2 challenge measured after 2 hrs by MTT assay. In kind it is functional, PC-12.
Data set [28] relates to Mus musculus. In words: Neuroprotective effect in Kunming mouse assessed as reversal of scopolamine-induced increase in AChE activity in hippocampus at 25 to 100 mg/kg, po qd administered for 15 days followed by 1 hr prior to trial session for 6 days. It is filed as functional, organism-based.
Data set [29] relates to Mus musculus. Kind of data set: Neuroprotective effect in Kunming mouse assessed as increase in scopolamine-induced reduction in GPx level in hippocampus at 25 to 100 mg/kg, po qd administered for 15 days followed by 1 hr prior to trial session for 6 days relative to control. It is filed as functional, organism-based.
Data set [30] deals with PC-12. In words: Inhibition of intracellular ROS generation in rat PC12 cells at 20 ug/ml incubated for 24 hrs prior to H2O2 challenge measured after 2 hrs by fluorescence assay relative to control. In kind it is functional. Conditions: values are per cent of control.
Data set [31] has as its system Mus musculus. Kind of data set: Neuroprotective effect in Kunming mouse assessed as reversal of scopolamine-induced effect on spatial memory performance at 100 mg/kg, po qd administered for 15 days followed by 1 hr prior to trial session for 6 days by Morris water maze test relative to sham control. In kind it is functional, organism-based. Further details: dose 100 mg/kg.

Data set [32] addresses T1, Acetylcholinesterase. Kind of data set: Inhibition of AChE (unknown origin) by Ellman's method. For orientation: In Ellman's method for cholinesterases, released thiocholine reacts with DTNB.
Data set [33] relates to PC-12. Kind of data set: Inhibition of H2O2-induced NO production in rat PC12 cells incubated for 24 hrs prior to H2O2 challenge measured after 2 hrs relative to control. In kind it is functional, cell-based.
The subject of data set [34] is Mus musculus. Kind of data set: Neuroprotective effect in Kunming mouse assessed as reversal of scopolamine-induced reduction in ACh level in hippocampus at 25 to 100 mg/kg, po qd administered for 15 days followed by 1 hr prior to trial session for 6 days. In kind it is functional, organism-based.
Data set [35] has as its system Mus musculus. Kind of data set: Neuroprotective effect in Kunming mouse assessed as increase in scopolamine-induced reduction in time spent in platform crossing at 50 to 100 mg/kg, po qd administered for 15 days followed by 1 hr prior to trial session for 6 days measured at day 5 by Morris water maze test relative to sham control. In kind it is functional, organism-based.

Data set [36] has as its system Mus musculus. Kind of data set: Neuroprotective effect in Kunming mouse assessed as increase in scopolamine-induced reduction in swim speed at 25 to 100 mg/kg, po qd administered for 15 days followed by 1 hr prior to trial session for 6 days measured at day 5 by Morris water maze test relative to sham control. In kind it is functional, organism-based.
Data set [37] has as its system Mus musculus. Kind of data set: Neuroprotective effect in Kunming mouse assessed as increase in scopolamine-induced reduction in time spent in target quadrant at 50 to 100 mg/kg, po qd administered for 15 days followed by 1 hr prior to trial session for 6 days measured at day 5 by Morris water maze test relative to sham control. In kind it is functional, organism-based.

Data set [38] relates to PC-12. In words: Inhibition of H2O2-induced LDH release in rat PC12 cells at 20 uM incubated for 24 hrs prior to H2O2 challenge measured after 2 hrs relative to control. In kind it is functional, cell-based. A general note: LDH in the medium is a marker of cell lysis.
Data set [39] deals with PC-12. Kind of data set: Inhibition of H2O2-induced NO production in rat PC12 cells at 20 uM incubated for 24 hrs prior to H2O2 challenge measured after 2 hrs relative to control. It is filed as functional, cell-based.
Data set [40] has as its system PC-12. In words: Cytoprotective effect against H2O2-induced cell death in rat PC12 cells at 20 uM incubated for 24 hrs prior to H2O2 challenge measured after 2 hrs by MTT assay. It is filed as functional, cell-based.

T1 sequence (P22303 whole entry): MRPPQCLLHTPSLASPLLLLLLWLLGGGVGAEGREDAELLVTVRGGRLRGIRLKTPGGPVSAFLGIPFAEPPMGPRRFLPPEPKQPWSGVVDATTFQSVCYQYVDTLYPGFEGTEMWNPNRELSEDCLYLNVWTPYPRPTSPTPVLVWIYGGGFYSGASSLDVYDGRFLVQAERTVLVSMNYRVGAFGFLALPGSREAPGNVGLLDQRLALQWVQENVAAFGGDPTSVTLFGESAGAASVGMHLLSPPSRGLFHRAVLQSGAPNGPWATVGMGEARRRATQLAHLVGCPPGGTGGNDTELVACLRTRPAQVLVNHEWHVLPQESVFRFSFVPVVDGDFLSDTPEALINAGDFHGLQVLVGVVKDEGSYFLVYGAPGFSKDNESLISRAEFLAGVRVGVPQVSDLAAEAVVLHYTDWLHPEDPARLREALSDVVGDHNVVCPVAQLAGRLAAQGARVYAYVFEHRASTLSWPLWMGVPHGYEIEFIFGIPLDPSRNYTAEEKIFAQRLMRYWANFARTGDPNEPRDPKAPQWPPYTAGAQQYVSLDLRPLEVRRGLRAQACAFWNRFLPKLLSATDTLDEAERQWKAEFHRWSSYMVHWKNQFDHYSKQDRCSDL

Take `C/C=C1\[C@H]2C=C(C)C[C@]1(N)c1ccc(=O)[nH]c1C2`: the outcome in the data set on Mus musculus [1], with Mus musculus [2], with Mus musculus [3], with Mus musculus [4], with Mus musculus [5] and with Mus musculus [6] was Active. In addition, the outcome in the data set on Mus musculus [7] and in the data set on Mus musculus [8] was Active.

Consider `O=C1c2cccc(O)c2C(=O)c2c(O)cc(CO)cc21` [ALOE-EMODIN], for which the result in the data set with Mus musculus [9], with Mus musculus [12], with Mus musculus [13], in the data set on Mus musculus [23], in the data set on Mus musculus [28] and in the data set with Mus musculus [29] was Active. In addition, the outcome with Mus musculus [31], with Mus musculus [34], in the data set with Mus musculus [35], with Mus musculus [36] and in the data set on Mus musculus [37] was Active. Besides, the Activity entry with Mus musculus [10] is “Dose-dependent effect”; in data set [14], 88.7%; in data set [16], 72.9%; with Mus musculus [19], “Dose-dependent effect”; in the data set on Mus musculus [20], “Dose-dependent effect”; in data set [26] it was “Non-toxic”. In addition, the Activity in [27] is 81%. The same compound displayed a response, % of control at 5 µg/mL in the data set on PC-12 [11] of 195%. This compound also showed an inhibition at 20 µg/mL in the data set on PC-12 [15] of 64.3%. In addition, the inhibition was 70% on Acetylcholinesterase [17] and “Dose-dependent effect” with PC-12 [33]. Moreover, in the data set with PC-12 [18], the response, % of control at 10 µg/mL stood at 165%. The same compound registered an inhibition at 10 µg/mL in the data set on PC-12 [21] of 46.4%. In addition, the inhibition entry in the data set with PC-12 [22] was “Active”. Also, the result with Mus musculus [24] was inactive. For the same compound, the inhibition at 5 µg/mL with PC-12 [25] came out at 27.8%. This compound displayed a response, % of control at 20 µg/mL with PC-12 [30] of 149%. Besides, the negative-log IC50 (pIC50) against Acetylcholinesterase [32] is 4.17.

Consider VITAMIN E, for which the inhibition entry in the data set with PC-12 [38] is “Active”. For the same compound, in the data set on PC-12 [39], the inhibition was 76.2%. For the same compound, in the data set with PC-12 [40], the result was Active.

In general, inhibition refers to the percentage by which the read-out fell short of the control. By pIC50 is commonly meant the IC50 on a negative log10 scale, so that one unit is a factor of ten. Read a low pIC50 as a large IC50.

The values are drawn from ChEMBL document CHEMBL3352582, “Protective effects of aloe-emodin on scopolamine-induced memory impairment in mice and H₂O₂-induced cytotoxicity in PC12 cells” (Bioorg Med Chem Lett, 2014).
